Laboratory results reported in patent US20240148821A1, “PHARMACEUTICAL USE OF CYCLIC PEPTIDE COMPOUND” (CHUGAI SEIYAKU KABUSHIKI KAISHA, priority 2021, published 2024).
pIC50: −log10 of the molar value. Numbered stars: 1 amine (or outer) side, 2 acyl side, 3 side chain; on linkers, the order of the positions; unused ones are H or OH. Bridge positions count the residues as written; N and C are the ends. Square brackets hold non-standard residues; d marks the D form. Peptide text beside a SMILES is read from it. * marks the point of attachment. hPhe(3-Cl-4-CF3) = N[C@@H](CCc1ccc(C(F)(F)F)c(Cl)c1)C(=O)O; hPhe(3-F,4-CF3) = N[C@@H](CCc1ccc(C(F)(F)F)c(F)c1)C(=O)O; NMePhe(4-CF3) = CN[C@@H](Cc1ccc(C(F)(F)F)cc1)C(=O)O; hPhe(4-CF3) = N[C@@H](CCc1ccc(C(F)(F)F)cc1)C(=O)O; 3Oxa8azabicyclo(3.2.1)octane = C1CC2COCC1N2*; NMePhe(4-Cl) = CN[C@@H](Cc1ccc(Cl)cc1)C(=O)O; NMePhe(4-F) = CN[C@@H](Cc1ccc(F)cc1)C(=O)O; X72 = O=C([C@@H]1Cc2ccccc2N1[*:1])[*:2]; NMeGly(cPent) = CN[C@H](C(=O)O)C1CCCC1; NMeAla(cPr) = CN[C@@H](CC1CC1)C(=O)O; NMeCha = CN[C@@H](CC1CCCCC1)C(=O)O; NMeChg = CN[C@H](C(=O)O)C1CCCCC1; NMeF = CN[C@@H](Cc1ccccc1)C(=O)O; NMeI = CC[C@H](C)[C@H](NC)C(=O)O; Gly(cPr) = N[C@H](C(=O)O)C1CC1; NMeD = CN[C@@H](CC(=O)O)C(=O)O; NMeL = CN[C@@H](CC(C)C)C(=O)O; NMeV = CN[C@H](C(=O)O)C(C)C; d(β3hA) = C[C@@H](N)CC(=O)O; Azetidin(1-yl) = C1CN(*)C1; NMeA = CN[C@@H](C)C(=O)O; NMeAib = CNC(C)(C)C(=O)O; Piperidide = C1CCN(*)CC1; Pyrrolidide = C1CCN(*)C1; dNMeA = CN[C@H](C)C(=O)O; Ac5c = NC1(C(=O)O)CCCC1; Aze = O=C(O)[C@@H]1CCN1; NcPrGly = O=C(O)CNC1CC1; Aib = CC(C)(N)C(=O)O; βAla = NCCC(=O)O; Sar = CNCC(=O)O

What follows are compounds tested on Human pancreatic cancer cell line AsPC-1 (G12D mutation Kras) (assay: AsPC-1 cell growth inhibition (AsPC-1 CGI)). Details: read-out: AsPC-1 cell growth inhibition, 50% growth inhibitory concentration (IC50 value); 96 hours, CellTiter-Glo, values classified in ranges.
Assay type: cell-based
Description: Test compounds were serially dilated with dimethyl sulfoxide, and 200 nL was then dispensed to a U-bottom 96-well plate using Labcyte Echo. […] The cell suspension was dispensed to a. plate containing a test compound at 100 μL per well and incubated at 37° C. in a 5% carbon dioxide gas incubator. 96 hours later, 80 μL of CellTiter-Glo (Promega) was added to each well and fluorescence was measured.
For `CC[C@H](C)[C@@H]1NC(=O)[C@H](C)N(C)C(=O)C[C@@H](C(=O)N2CCCCC2)N(C)C(=O)[C@H](C(C)C)N(C)C(=O)C(C)(C)N(C)C(=O)[C@@H]2CCCN2C(=O)[C@H](CCc2ccc(C(F)(F)F)c(Cl)c2)NC(=O)CN(C)C(=O)[C@H](CC2CCCCC2)N(C)C(=O)CN(C)C(=O)CN(C)C1=O` [Compound 507] ([NMeA]I[Sar][Sar][NMeCha][Sar][hPhe(3-Cl-4-CF3)]P[NMeAib][NMeV][NMeD]-Piperidide; lactam N-11), the pIC50 was < 6.30. For `CC[C@H](C)[C@@H]1NC(=O)[C@H](CC(C)C)N(C)C(=O)C[C@@H](C(=O)N2CCCC2)NC(=O)[C@H](C(C)C)N(C)C(=O)C2(CCCC2)NC(=O)[C@@H]2CCCN2C(=O)[C@H](CCc2ccc(C(F)(F)F)c(Cl)c2)NC(=O)CN(C)C(=O)[C@H](CC2CCCCC2)N(C)C(=O)CN(C)C(=O)CN(C)C1=O` [Compound 508] ([NMeL]I[Sar][Sar][NMeCha][Sar][hPhe(3-Cl-4-CF3)]P[Ac5c][NMeV]D-Pyrrolidide; lactam N-11), the pIC50 was < 6.30. For `CC[C@H](C)[C@@H]1NC(=O)[C@H](CC(C)C)N(C)C(=O)C[C@@H](C)NC(=O)[C@H](C(C)C)N(C)C(=O)C2(CCCC2)NC(=O)[C@@H]2CCCN2C(=O)[C@H](CCc2ccc(C(F)(F)F)c(Cl)c2)NC(=O)CN(C)C(=O)[C@H](CC2CC2)N(C)C(=O)CN(C)C(=O)CN(C)C1=O` [Compound 511] (cyclo([Ac5c][NMeV][d(β3hA)][NMeL]I[Sar][Sar][NMeAla(cPr)][Sar][hPhe(3-Cl-4-CF3)]P)), the pIC50 was < 6.30. For `CC[C@H](C)[C@@H]1NC(=O)[C@H](CC(C)C)N(C)C(=O)C[C@@H](C(=O)N2CCCCC2)N(C)C(=O)[C@H](C2CCCCC2)N(C)C(=O)C2(CCCC2)NC(=O)[C@@H]2Cc3ccccc3N2C(=O)[C@H](CCc2ccc(C(F)(F)F)c(Cl)c2)NC(=O)CN(C)C(=O)[C@H](CC2CCCCC2)N(C)C(=O)CN(C)C(=O)CN(C)C1=O` [Compound 514] ([NMeL]I[Sar][Sar][NMeCha][Sar][hPhe(3-Cl-4-CF3)][X72][Ac5c][NMeChg][NMeD]-Piperidide; lactam N-11), the pIC50 was < 6.30. In the case of `CC[C@H](C)[C@@H]1NC(=O)[C@H](CC(C)C)N(C)C(=O)C[C@@H](C(=O)N2CCC2)N(C)C(=O)[C@H](C2CCCC2)N(C)C(=O)C2(CCCC2)NC(=O)[C@@H]2CCCN2C(=O)[C@H](CCc2ccc(C(F)(F)F)c(Cl)c2)NC(=O)CN(C)C(=O)[C@H](CC2CCCCC2)N(C)C(=O)[C@@H]2CCN2C(=O)[C@H](C)N(C)C1=O` [Compound 515] ([NMeL]I[NMeA][Aze][NMeCha][Sar][hPhe(3-Cl-4-CF3)]P[Ac5c][NMeGly(cPent)][NMeD]-{Azetidin(1-yl)}; lactam N-11), the pIC50 was ≥ 7.70. `CC[C@H](C)[C@@H]1NC(=O)[C@H](C)N(C)C(=O)C[C@@H](C)NC(=O)[C@H](C(C)C)N(C)C(=O)C2(CCCC2)NC(=O)[C@@H]2CCCN2C(=O)[C@H](CCc2ccc(C(F)(F)F)c(Cl)c2)NC(=O)[C@@H](C)N(C)C(=O)[C@H](CC2CCCCC2)N(C)C(=O)[C@@H]2CCCN2C(=O)CN(C)C1=O` [Compound 516] (cyclo([Ac5c][NMeV][d(β3hA)][NMeA]I[Sar]P[NMeCha][dNMeA][hPhe(3-Cl-4-CF3)]P)) was tested, and the pIC50 was < 6.30. `CC[C@H](C)[C@@H]1NC(=O)[C@H](CC(C)C)N(C)C(=O)C[C@@H](C(=O)N2CCCCC2)N(C)C(=O)[C@H](C(C)C)N(C)C(=O)C(C)(C)NC(=O)[C@@H]2CCCN2C(=O)[C@H](CCc2ccc(C(F)(F)F)c(F)c2)NC(=O)CN(C)C(=O)[C@H](CC2CCCCC2)N(C)C(=O)CN(C)C(=O)CN(C)C1=O` [Compound 522] ([NMeL]I[Sar][Sar][NMeCha][Sar][hPhe(3-F,4-CF3)]P[Aib][NMeV][NMeD]-Piperidide; lactam N-11) was tested, and the pIC50 was < 6.30. `CC[C@H](C)[C@@H]1NC(=O)[C@H](CC(C)C)N(C)C(=O)C[C@@H](C(=O)N2CCCCC2)N(C)C(=O)[C@H](C2CCCCC2)N(C)C(=O)C2(CCCC2)NC(=O)[C@H](Cc2ccccc2)N(C)C(=O)[C@H](CCc2ccc(C(F)(F)F)c(Cl)c2)NC(=O)CN(C)C(=O)[C@H](CC2CCCCC2)N(C)C(=O)[C@@H]2CCN2C(=O)CN(C)C1=O` [Compound 527] ([NMeL]I[Sar][Aze][NMeCha][Sar][hPhe(3-Cl-4-CF3)][NMeF][Ac5c][NMeChg][NMeD]-Piperidide; lactam N-11) was tested, and the pIC50 was < 6.30. For `CC[C@H](C)[C@@H]1NC(=O)CCNC(=O)[C@H](Cc2ccc(F)cc2)N(C)C(=O)[C@H](C2CCCCC2)N(C)C(=O)C2(CCCC2)NC(=O)[C@@H]2CCCN2C(=O)[C@H](CCc2ccc(C(F)(F)F)c(Cl)c2)NC(=O)CN(C)C(=O)[C@H](CC2CCCCC2)N(C)C(=O)CN(C)C(=O)CN(C)C1=O` [Compound 528] (cyclo([Ac5c][NMeChg][NMePhe(4-F)][βAla]I[Sar][Sar][NMeCha][Sar][hPhe(3-Cl-4-CF3)]P)), the pIC50 was < 6.30. `CC(C)C[C@H]1C(=O)N[C@@H](C2CC2)C(=O)N(C)CC(=O)N(C)CC(=O)N(C)[C@@H](CC2CCCCC2)C(=O)N(C)CC(=O)N[C@@H](CCc2ccc(C(F)(F)F)c(Cl)c2)C(=O)N2CCC[C@H]2C(=O)NC2(CCCC2)C(=O)N(C)[C@@H](C(C)C)C(=O)N(C)[C@H](C(=O)N2CCCCC2)CC(=O)N1C` [Compound 533] ([NMeL][Gly(cPr)][Sar][Sar][NMeCha][Sar][hPhe(3-Cl-4-CF3)]P[Ac5c][NMeV][NMeD]-Piperidide; lactam N-11) was tested, and the pIC50 was < 6.30. With `CC[C@H](C)[C@@H]1NC(=O)[C@H](C(C)C)N(C)C(=O)C[C@@H](C)NC(=O)[C@H](CC(C)C)N(C)C(=O)C2(CCCC2)NC(=O)[C@H](CC(C)C)N(C)C(=O)[C@H](CCc2ccc(C(F)(F)F)cc2)NC(=O)CN(C)C(=O)[C@H](Cc2ccc(Cl)cc2)N(C)C(=O)CN(C)C(=O)[C@@H]2CCN2C1=O` [Compound 538] (cyclo([Ac5c][NMeL][d(β3hA)][NMeV]I[Aze][Sar][NMePhe(4-Cl)][Sar][hPhe(4-CF3)][NMeL])) the pIC50 was < 6.30. `CC[C@H](C)[C@@H]1NC(=O)[C@H](CC(C)C)N(C)C(=O)C[C@@H](C)NC(=O)[C@H](C(C)C)N(C)C(=O)C2(CCCC2)NC(=O)[C@@H]2CCCN2C(=O)[C@H](CCc2ccc(C(F)(F)F)c(Cl)c2)NC(=O)CN(C)C(=O)[C@H](CC2CCCCC2)N(C)C(=O)CN(C)C(=O)CN(C2CC2)C1=O` [Compound 542] (cyclo([Ac5c][NMeV][d(β3hA)][NMeL]I[NcPrGly][Sar][NMeCha][Sar][hPhe(3-Cl-4-CF3)]P)) was tested, and the pIC50 was < 6.30. `CC[C@H](C)[C@@H]1NC(=O)[C@H](CC(C)C)N(C)C(=O)C[C@@H](C(=O)N2C3CCC2COC3)N(C)C(=O)[C@H]([C@@H](C)CC)N(C)C(=O)C2(CCCC2)NC(=O)[C@@H]2CCCN2C(=O)[C@H](CCc2ccc(C(F)(F)F)c(Cl)c2)NC(=O)CN(C)C(=O)[C@H](Cc2ccc(C(F)(F)F)cc2)N(C)C(=O)[C@@H]2CCN2C(=O)[C@H](C)N(C)C1=O` [Compound 545] ([NMeL]I[NMeA][Aze][NMePhe(4-CF3)][Sar][hPhe(3-Cl-4-CF3)]P[Ac5c][NMeI][NMeD]-{3Oxa8azabicyclo(3.2.1)octane}; lactam N-11) was tested, and the pIC50 was ≥ 7.70. `CC[C@H](C)[C@@H]1NC(=O)[C@H](C)N(C)C(=O)C[C@@H](C)NC(=O)[C@H](C2CCCC2)N(C)C(=O)C2(CCCC2)NC(=O)[C@@H]2CCCN2C(=O)[C@H](CCc2ccc(C(F)(F)F)c(Cl)c2)NC(=O)CN(C)C(=O)[C@H](Cc2ccc(Cl)cc2)N(C)C(=O)[C@@H]2CCCN2C(=O)CN(C)C1=O` [Compound 549] (cyclo([Ac5c][NMeGly(cPent)][d(β3hA)][NMeA]I[Sar]P[NMePhe(4-Cl)][Sar][hPhe(3-Cl-4-CF3)]P)) was tested, and the pIC50 was < 6.30.
